Laboratory results as given in patent US20110077206A1, “USE OF HNF4ALPHA FOR TREATMENT OF HUMAN MALIGNANT SOLID TUMORS THROUGH INDUCTION-DIFFERENTIATION THERAPY” (SECOND MILITARY MEDICAL UNIVERSITY, priority 2008, published 2011).

Legend:
[1] = system: Human hepatoma cell lines HepG2 and Hep3B; test: Flow cytometry of CD133+ cell proportion; type: cell-based; details: data not shown
Experimental: 1. […] After 24 hrs, the medium was replaced with fresh DMEM culture solution containing 10% FBS. After three days, the cells were collected, and the CD133/1-PE (Miltenyi Biotec, Auburn, Calif.) was used as primary antibody for incubation, and the proportion of CD133+ cells was determined by flow cytometry.

[2] = system: solid tumors; test: In vivo study of control substances on solid tumor differentiation; details: background statement of inventors' study
[3] = system: Human hepatoma cell lines HepG2 and Hep3B; test: In vitro effects of control substances on hepatoma cell lines (RT-PCR, immunohistochemistry, morphology); type: cell-based; details: for apoptosis / proliferation: HepG2 and Hep3B; for regulation effect on in vitro differentiation of hepatocellular carcinoma cell lines: background statement of inventors' study
Experimental: Human hepatoma cell lines HepG2 and Hep3B were inoculated onto the six-well plate with a concentration of 5×10^5 cells/dish, and the all-trans retinoic acid, somatostatin, tumor necrosis factor, and arsenic trioxide were added respectively. The total RNA was extracted by Trizol kit, and reverse transcriptase reaction was carried out for 2 hrs. 1 μl diluted reverse transcription product was taken and used as template for PCR amplification to detect the mRNA expression of liver cell-related function genes. The proliferation and apoptosis related proteins such as Cyclin, Bax, Bcl-2 and so on was measured by immunohistochemistry.

Molecule	differentiation induction effect on tumor stem cells [1]	in vivo induction of differentiation of solid tumors [2]	apoptosis [3]	proliferation [3]	regulation effect on in vitro differentiation of hepatocellular carcinoma cell lines [3]
arsenic trioxide	no significant differentiation induction effect	can not effectively induce the differentiation of solid tumors	significantly increased	reduced	no drugs or proteins with clear differentiation therapy effects
CC1=C(/C=C/C(C)=C/C=C/C(C)=C/C(=O)O)C(C)(C)CCC1 [all-trans retinoic acid]	no significant differentiation induction effect	can not effectively induce the differentiation of solid tumors			no drugs or proteins with clear differentiation therapy effects
tumor necrosis factor		can not effectively induce the differentiation of solid tumors	significantly increased	reduced	no drugs or proteins with clear differentiation therapy effects
